Assay results reported in patent US20080009418A1, “Selective Inhibitors” (Alchemia LTD., priority 2004, published 2008).

Tests used:
Human neurokinin (NK1) = biological target: T1, Human neurokinin (NK1) (Homo sapiens, UniProt P25103); assay: Radioligand binding, human neurokinin NK1 membranes, filtration, [125I]-Substance P; conditions: compound at 10 μM; [125I]-Substance P
T1 construct: purchased Perkin Elmer Biosignal
In short: (§1)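 Membranes from cloned human receptors were incubated with compound and radioligand for 1 hour at room temperature. Bound ligand was collected on 0.3% PEI-soaked filters, washed with cold 50 mM Tris-HCl pH 7.4, and counted by scintillation. Percent inhibition was computed against DMSO totals and reference-ligand nonspecific wells.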

Human κ-Opioid (KOP) = biological target: T2, Human κ-Opioid (KOP) (Homo sapiens, UniProt P41145); assay: Radioligand binding, human κ-opioid (KOP) membranes, filtration, [3H]-Diprenorphine; conditions: compound at 10 μM; [3H]-Diprenorphine
T2 construct: purchased Perkin Elmer Biosignal
In short: as §1

Human melanocortin (MC5) = biological target: T3, Human melanocortin (MC5) (Homo sapiens, UniProt P33032); assay: Radioligand binding, human melanocortin MC5 membranes, FlashPlate, [125I]-NDP-αMSH; conditions: compound at 10 μM; [125I]-NDP-αMSH
T3 construct: purchased Perkin Elmer Biosignal
In short: (§2)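 Cloned human receptor membranes were coated onto FlashPlate wells and incubated with radioligand and compound (added from a 0.5 mM DMSO daughter plate) for 1 hour at room temperature in the dark. Scintillation counting gave percent inhibition, with DMSO defining total and reference ligand defining non-specific binding.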

[1] = biological target: T4, Human melanin-concentrating hormone (MCH1) (Homo sapiens, UniProt Q99705); assay: Radioligand binding, human melanin-concentrating hormone MCH1 membranes, FlashPlate, [125I]-S36057; conditions: compound at 10 μM; [125I]-S36057
T4 construct: purchased Perkin Elmer Biosignal
In short: as §2

Mouse urotensin (mUR2) = biological target: T5, Mouse urotensin (mUR2) (Mus musculus, UniProt Q8VIH9); assay: Radioligand binding, mouse urotensin mUR2 membranes, FlashPlate, [125I]-Urotensin II; conditions: compound at 10 μM; [125I]-Urotensin II
T5 construct: purchased Perkin Elmer Biosignal
T5 sequence (Q8VIH9 1-385): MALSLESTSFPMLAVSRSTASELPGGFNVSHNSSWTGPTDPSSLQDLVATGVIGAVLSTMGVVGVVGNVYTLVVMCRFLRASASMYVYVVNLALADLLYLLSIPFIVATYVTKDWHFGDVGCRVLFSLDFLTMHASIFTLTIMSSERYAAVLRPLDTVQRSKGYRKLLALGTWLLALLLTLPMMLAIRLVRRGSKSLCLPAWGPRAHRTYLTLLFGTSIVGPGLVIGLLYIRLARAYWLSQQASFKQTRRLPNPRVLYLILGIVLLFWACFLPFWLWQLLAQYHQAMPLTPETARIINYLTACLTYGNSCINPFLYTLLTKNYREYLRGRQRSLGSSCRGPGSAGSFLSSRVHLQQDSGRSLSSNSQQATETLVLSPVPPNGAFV
In short: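 Cloned mouse urotensin (mUR2) receptor membranes from Perkin Elmer Biosignal were immobilized in FlashPlate microplates using a proprietary coating. Each well got 19.5 μl buffer, then 0.5 μl of DMSO, reference ligand, or compound. Adding 5 μl of [125I]-Urotensin II, diluted to 5× final concentration in binding buffer, started binding. Plates were sealed with TopSeal-A and incubated 1 hour at room temperature in the dark. Wells were counted for 30 seconds each on a TopCount after a 60-second delay, and percentage inhibition was calculated.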

Human Melanocortin (MC3) = biological target: T6, Human Melanocortin (MC3) (Homo sapiens, UniProt P41968); assay: Radioligand binding, human melanocortin MC3 membranes, FlashPlate, [125I]-NDP-αMSH; conditions: compound at 10 μM; [125I]-NDP-αMSH
T6 construct: purchased Perkin Elmer Biosignal
In short: as §2

Human μ-opioid (MOP) = biological target: T7, Human μ-opioid (MOP) (Homo sapiens, UniProt P35372); assay: Radioligand binding, human μ-opioid (MOP) membranes, FlashPlate, [3H]-Naloxone; conditions: compound at 10 μM; [3H]-Naloxone
T7 construct: purchased Perkin Elmer Biosignal
In short: as §2

Human opioid (ORL1) = biological target: T8, Human opioid (ORL1) (Homo sapiens, UniProt P41146); assay: Radioligand binding, human opioid ORL1 membranes, FlashPlate, [125I]-Nociceptin; conditions: compound at 10 μM; [125I]-Nociceptin
T8 construct: purchased Perkin Elmer Biosignal
In short: as §2

Human Melanocortin (MC4) = biological target: T9, Human Melanocortin (MC4) (Homo sapiens, UniProt P32245); assay: Radioligand binding, human melanocortin MC4 membranes, FlashPlate, [125I]-NDP-αMSH; conditions: compound at 10 μM; [125I]-NDP-αMSH
T9 construct: purchased Perkin Elmer Biosignal
In short: as §2

Human δ-opioid (DOP) = biological target: T10, Human δ-opioid (DOP) (Homo sapiens, UniProt P41143); assay: Radioligand binding, human δ-opioid (DOP) membranes, FlashPlate, [3H]-Bremazocine; conditions: compound at 10 μM; [3H]-Bremazocine
T10 construct: purchased Perkin Elmer Biosignal
In short: as §2

[2] = biological target: T11, Human neuropeptide Y (NPY-Y1) (Homo sapiens, UniProt P25929); assay: Radioligand binding, human neuropeptide Y NPY-Y1 membranes, FlashPlate, [125I]-PYY; conditions: compound at 10 μM; [125I]-PYY
T11 construct: purchased Perkin Elmer Biosignal
T11 sequence (P25929 1-384): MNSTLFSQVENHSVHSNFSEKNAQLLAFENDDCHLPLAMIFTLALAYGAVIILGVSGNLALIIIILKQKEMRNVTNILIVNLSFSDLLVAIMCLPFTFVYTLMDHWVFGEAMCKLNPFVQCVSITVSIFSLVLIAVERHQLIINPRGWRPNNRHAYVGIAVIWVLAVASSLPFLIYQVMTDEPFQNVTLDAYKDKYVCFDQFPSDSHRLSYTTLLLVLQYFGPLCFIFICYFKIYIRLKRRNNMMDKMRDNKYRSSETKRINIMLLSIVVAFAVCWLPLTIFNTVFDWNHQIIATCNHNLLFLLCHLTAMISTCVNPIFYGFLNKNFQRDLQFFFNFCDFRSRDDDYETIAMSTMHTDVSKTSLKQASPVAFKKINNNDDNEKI
In short: as §2

T9 sequence (P32245 whole entry): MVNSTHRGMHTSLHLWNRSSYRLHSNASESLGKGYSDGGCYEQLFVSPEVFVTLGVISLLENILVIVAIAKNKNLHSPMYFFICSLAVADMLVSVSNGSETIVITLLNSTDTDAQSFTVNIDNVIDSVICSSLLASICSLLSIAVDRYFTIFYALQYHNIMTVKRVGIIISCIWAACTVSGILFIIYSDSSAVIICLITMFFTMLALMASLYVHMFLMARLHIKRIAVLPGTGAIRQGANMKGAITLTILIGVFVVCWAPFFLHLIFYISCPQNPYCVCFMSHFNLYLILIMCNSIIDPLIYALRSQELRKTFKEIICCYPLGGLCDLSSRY
T6 sequence (P41968 whole entry): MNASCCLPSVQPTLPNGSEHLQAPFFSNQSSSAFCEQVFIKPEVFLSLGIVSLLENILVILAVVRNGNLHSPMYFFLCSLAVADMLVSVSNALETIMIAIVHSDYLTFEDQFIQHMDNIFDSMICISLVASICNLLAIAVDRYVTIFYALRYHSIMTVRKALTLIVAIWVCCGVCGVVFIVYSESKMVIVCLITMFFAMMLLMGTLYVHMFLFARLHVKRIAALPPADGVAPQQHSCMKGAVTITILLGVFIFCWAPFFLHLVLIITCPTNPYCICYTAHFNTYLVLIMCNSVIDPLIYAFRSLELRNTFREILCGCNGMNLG
T10 sequence (P41143 whole entry): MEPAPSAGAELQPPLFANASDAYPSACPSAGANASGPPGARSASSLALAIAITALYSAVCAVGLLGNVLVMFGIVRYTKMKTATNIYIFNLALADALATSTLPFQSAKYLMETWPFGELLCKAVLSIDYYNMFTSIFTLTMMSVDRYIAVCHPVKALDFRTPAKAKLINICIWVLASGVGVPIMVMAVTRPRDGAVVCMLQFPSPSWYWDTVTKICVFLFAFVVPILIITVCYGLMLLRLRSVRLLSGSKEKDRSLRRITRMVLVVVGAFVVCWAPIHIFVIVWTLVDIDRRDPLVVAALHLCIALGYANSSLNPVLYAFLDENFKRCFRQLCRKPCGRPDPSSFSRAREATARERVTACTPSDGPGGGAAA
T8 sequence (P41146 whole entry): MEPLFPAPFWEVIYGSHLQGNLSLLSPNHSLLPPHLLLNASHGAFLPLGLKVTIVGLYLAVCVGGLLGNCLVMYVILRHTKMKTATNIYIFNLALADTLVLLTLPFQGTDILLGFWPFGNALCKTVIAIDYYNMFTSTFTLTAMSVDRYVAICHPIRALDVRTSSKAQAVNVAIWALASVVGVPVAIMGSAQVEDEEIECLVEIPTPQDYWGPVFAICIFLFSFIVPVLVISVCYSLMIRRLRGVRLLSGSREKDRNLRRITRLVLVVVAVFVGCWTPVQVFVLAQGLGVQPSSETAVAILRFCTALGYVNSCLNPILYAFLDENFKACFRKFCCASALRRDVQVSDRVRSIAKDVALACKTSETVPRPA
T7 sequence (P35372 whole entry): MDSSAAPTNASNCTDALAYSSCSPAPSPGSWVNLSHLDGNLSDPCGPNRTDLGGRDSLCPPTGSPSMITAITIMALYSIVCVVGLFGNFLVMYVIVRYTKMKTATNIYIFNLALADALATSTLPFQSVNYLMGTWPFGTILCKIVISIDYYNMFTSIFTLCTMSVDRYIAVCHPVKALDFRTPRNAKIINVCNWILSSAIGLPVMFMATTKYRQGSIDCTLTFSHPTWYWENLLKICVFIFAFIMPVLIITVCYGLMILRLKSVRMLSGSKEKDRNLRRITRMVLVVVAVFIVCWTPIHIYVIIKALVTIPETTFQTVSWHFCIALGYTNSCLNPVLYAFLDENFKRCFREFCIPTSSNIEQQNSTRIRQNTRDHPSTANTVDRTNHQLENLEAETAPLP
T1 sequence (P25103 whole entry): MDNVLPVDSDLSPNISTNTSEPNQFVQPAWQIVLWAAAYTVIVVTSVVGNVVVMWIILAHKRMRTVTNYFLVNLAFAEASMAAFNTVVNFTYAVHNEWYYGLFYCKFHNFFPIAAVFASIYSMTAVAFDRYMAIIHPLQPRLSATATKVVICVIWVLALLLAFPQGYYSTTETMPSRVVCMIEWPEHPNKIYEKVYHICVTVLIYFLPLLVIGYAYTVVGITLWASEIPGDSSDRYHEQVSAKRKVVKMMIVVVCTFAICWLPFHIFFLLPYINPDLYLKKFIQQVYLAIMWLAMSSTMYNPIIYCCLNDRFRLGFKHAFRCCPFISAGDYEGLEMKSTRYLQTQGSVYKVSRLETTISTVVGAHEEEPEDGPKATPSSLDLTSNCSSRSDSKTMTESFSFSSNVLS
T3 sequence (P33032 whole entry): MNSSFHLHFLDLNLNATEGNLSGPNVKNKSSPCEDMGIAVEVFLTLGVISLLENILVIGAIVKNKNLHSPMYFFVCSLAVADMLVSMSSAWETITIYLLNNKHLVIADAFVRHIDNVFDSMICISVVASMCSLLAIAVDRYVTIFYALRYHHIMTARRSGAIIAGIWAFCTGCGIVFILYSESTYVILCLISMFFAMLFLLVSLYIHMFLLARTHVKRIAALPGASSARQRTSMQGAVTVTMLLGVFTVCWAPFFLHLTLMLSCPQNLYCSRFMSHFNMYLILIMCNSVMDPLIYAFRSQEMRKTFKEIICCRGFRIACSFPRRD
T4 sequence (Q99705 whole entry): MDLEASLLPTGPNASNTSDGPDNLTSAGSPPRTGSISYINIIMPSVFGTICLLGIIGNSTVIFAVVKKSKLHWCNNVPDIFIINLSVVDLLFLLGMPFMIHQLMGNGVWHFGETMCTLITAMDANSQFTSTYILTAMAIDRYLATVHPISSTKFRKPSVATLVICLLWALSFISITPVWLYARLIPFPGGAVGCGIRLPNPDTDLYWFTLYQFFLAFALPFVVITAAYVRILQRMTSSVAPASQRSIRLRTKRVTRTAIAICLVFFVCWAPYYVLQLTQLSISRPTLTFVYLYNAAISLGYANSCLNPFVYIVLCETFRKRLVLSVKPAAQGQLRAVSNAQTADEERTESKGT
T2 sequence (P41145 whole entry): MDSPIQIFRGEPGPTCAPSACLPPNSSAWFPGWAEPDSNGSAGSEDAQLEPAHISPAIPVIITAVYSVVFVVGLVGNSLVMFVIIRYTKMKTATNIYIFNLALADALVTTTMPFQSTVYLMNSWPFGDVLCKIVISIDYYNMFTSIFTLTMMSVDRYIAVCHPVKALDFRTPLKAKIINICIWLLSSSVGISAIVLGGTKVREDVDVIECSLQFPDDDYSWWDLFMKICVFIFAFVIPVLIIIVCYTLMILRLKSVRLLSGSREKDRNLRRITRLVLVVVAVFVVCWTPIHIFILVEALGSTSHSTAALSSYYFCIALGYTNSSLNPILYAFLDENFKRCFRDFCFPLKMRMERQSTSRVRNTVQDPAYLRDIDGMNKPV

Row | Compound | A8: inhibition of radioligand binding, human neurokinin (NK1) (Human neurokinin (NK1)) | A2: inhibition of radioligand binding, human κ-opioid (KOP) (Human κ-Opioid (KOP)) | A5: inhibition of radioligand binding, human melanocortin (MC5) (Human melanocortin (MC5)) | A6: inhibition of radioligand binding, human melanin-concentrating hormone (MCH1) [1] | A11: inhibition of radioligand binding, mouse urotensin (mUR2) (Mouse urotensin (mUR2)) | A3: inhibition of radioligand binding, human melanocortin (MC3) (Human Melanocortin (MC3)) | A7: inhibition of radioligand binding, human μ-opioid (MOP) (Human μ-opioid (MOP)) | A10: inhibition of radioligand binding, human opioid (ORL1) (Human opioid (ORL1)) | A4: inhibition of radioligand binding, human melanocortin (MC4) (Human Melanocortin (MC4)) | A1: inhibition of radioligand binding, human δ-opioid (DOP) (Human δ-opioid (DOP)) | A9: inhibition of radioligand binding, human neuropeptide Y (NPY-Y1) [2]
1 | CC(=O)N[C@H]1C(NC(=O)CCN)O[C@H](CO)[C@@H](O)[C@@H]1OCc1cccc2ccccc12 (stereo partly shown) [compound 356] | − (“−” indicates less than 50% inhibition at 10 μM) | − (“−” indicates less than 50% inhibition at 10 μM) | − (“−” indicates less than 50% inhibition at 10 μM) | − (“−” indicates less than 50% inhibition at 10 μM) | − (“−” indicates less than 50% inhibition at 10 μM) | − (“−” indicates less than 50% inhibition at 10 μM) | − (“−” indicates less than 50% inhibition at 10 μM) | − (“−” indicates less than 50% inhibition at 10 μM) | − (“−” indicates less than 50% inhibition at 10 μM) | − (“−” indicates less than 50% inhibition at 10 μM) | + (“+” indicates greater than 50% inhibition at 10 μM)
2 | Cc1ccc(CO[C@H]2[C@H](O)[C@@H](CO)OC(NC(=O)CCN)[C@@H]2NC(=O)c2ccccc2)cc1 (stereo partly shown) [compound 357] | − (“−” indicates less than 50% inhibition at 10 μM) | − (“−” indicates less than 50% inhibition at 10 μM) | − (“−” indicates less than 50% inhibition at 10 μM) | + (“+” indicates greater than 50% inhibition at 10 μM) | − (“−” indicates less than 50% inhibition at 10 μM) | − (“−” indicates less than 50% inhibition at 10 μM) | − (“−” indicates less than 50% inhibition at 10 μM) | − (“−” indicates less than 50% inhibition at 10 μM) | − (“−” indicates less than 50% inhibition at 10 μM) | − (“−” indicates less than 50% inhibition at 10 μM) | − (“−” indicates less than 50% inhibition at 10 μM)
3 | NCCC(=O)NC1O[C@H](CO)[C@@H](O)[C@H](OCc2cccc3ccccc23)[C@H]1NC(=O)c1ccccc1 (stereo partly shown) [compound 358] | − (“−” indicates less than 50% inhibition at 10 μM) | − (“−” indicates less than 50% inhibition at 10 μM) | − (“−” indicates less than 50% inhibition at 10 μM) | − (“−” indicates less than 50% inhibition at 10 μM) | − (“−” indicates less than 50% inhibition at 10 μM) | − (“−” indicates less than 50% inhibition at 10 μM) | − (“−” indicates less than 50% inhibition at 10 μM) | − (“−” indicates less than 50% inhibition at 10 μM) | − (“−” indicates less than 50% inhibition at 10 μM) | − (“−” indicates less than 50% inhibition at 10 μM) | + (“+” indicates greater than 50% inhibition at 10 μM)
4 | CC(=O)N[C@H]1C(NC(=O)CNC(=O)OC(C)(C)C)O[C@H](CO)[C@@H](O)[C@@H]1OCc1ccccc1 (stereo partly shown) [compound 359] | + (“+” indicates greater than 50% inhibition at 10 μM) | − (“−” indicates less than 50% inhibition at 10 μM) | − (“−” indicates less than 50% inhibition at 10 μM) | − (“−” indicates less than 50% inhibition at 10 μM) | − (“−” indicates less than 50% inhibition at 10 μM) | − (“−” indicates less than 50% inhibition at 10 μM) | − (“−” indicates less than 50% inhibition at 10 μM) | − (“−” indicates less than 50% inhibition at 10 μM) | − (“−” indicates less than 50% inhibition at 10 μM) | − (“−” indicates less than 50% inhibition at 10 μM) | + (“+” indicates greater than 50% inhibition at 10 μM)
5 | NCC(=O)NC1O[C@H](CO)[C@@H](O)[C@H](OCc2ccccc2)[C@H]1NC(=O)c1ccccc1 (stereo partly shown) [compound 360] | − (“−” indicates less than 50% inhibition at 10 μM) | − (“−” indicates less than 50% inhibition at 10 μM) | − (“−” indicates less than 50% inhibition at 10 μM) | − (“−” indicates less than 50% inhibition at 10 μM) | − (“−” indicates less than 50% inhibition at 10 μM) | − (“−” indicates less than 50% inhibition at 10 μM) | − (“−” indicates less than 50% inhibition at 10 μM) | − (“−” indicates less than 50% inhibition at 10 μM) | + (“+” indicates greater than 50% inhibition at 10 μM) | − (“−” indicates less than 50% inhibition at 10 μM) | − (“−” indicates less than 50% inhibition at 10 μM)
